From patent US4299813A, “Assay kit and method” (priority 1979, dated 1981) come the findings set out here.

Where “and” joins values, the source holds several entries; their conditions need not be identical. Identical values can stand only once.

For this test, the system named is muscarinic cholinergic receptor. The experiment in a line: Muscarinic cholinergic radioreceptor assay ([3H] QNB competition, serum antidepressant levels). It is filed as binding, rat (Sprague-Dawley).
The mark [1] stands for this setting: Standard C, 5.0 μM amitriptyline, Table II.
Where [2] appears, read: Standard D, 1.0 μM amitriptyline, Table II.
The mark [3] stands for this setting: Standard E, 0.2 μM amitriptyline, Table II.
The mark [4] stands for this setting: Standard C, 50 μM imipramine, Table III.
Where [5] appears, read: Standard D, 10 μM imipramine, Table III.
Setting [6] is: Standard E, 2 μM imipramine, Table III.

For `CN(C)CCC=C1c2ccccc2CCc2ccccc21` [amitriptyline], the CPM (Sample 1, serum, Table II) was 2537 CPM and 2867 CPM; the CPM (Sample 2, serum, Table II) is 7735 CPM and 7778 CPM and 7386 CPM; the CPM (Standard A, 10^-5 M amitriptyline (background), Table II) was 533 CPM and 529 CPM and 479 CPM; the CPM (Standard A, 10^-5 M amitriptyline (background), imipramine curve, Table III) was 533 CPM and 529 CPM and 479 CPM; the CPM under setting [1] was 1914 CPM and 1790 CPM and 1679 CPM; the CPM under setting [2] is 5285 CPM and 5442 CPM and 5239 CPM. Further, the CPM is, setting by setting: under setting [3], 9240 CPM and 9692 CPM; (Standard F, 0.04 μM amitriptyline, Table II) 11235 CPM. Further, the “Logit (B/Bo)” value reads like this: (Sample 1, serum, Table II) -0.644 and -0.562; (Sample 2, serum, Table II) 0.288 and 0.295 and 0.227; under setting [1], -0.834 and -0.879 and -0.924; under setting [2], -0.112 and -0.087 and -0.119; under setting [3], 0.595 and 0.716.
For the compound `CN(C)CCCN1c2ccccc2CCc2ccccc21` [imipramine], the CPM is 7105 CPM and 7146 CPM and 6773 CPM (Sample 1, serum, Table III); 9642 CPM and 8636 CPM and 8069 CPM (Sample 2, serum, Table III); 4922 CPM and 4908 CPM and 4803 CPM under setting [4]; 8706 CPM and 8704 CPM and 8799 CPM under setting [5]; 10370 CPM and 10617 CPM and 10843 CPM under setting [6]. For the same compound, the “Logit (B/Bo)” value by setting is: (Sample 1, serum, Table III) 0.180 and 0.187 and 0.125; under setting [4], -0.171 and -0.173 and -0.191; under setting [5], 0.473 and 0.493; under setting [6], 0.957 and 1.079 and 1.224.
